Measured values published in article PMC7573271, “Structural characterization of anti-CCL5 activity of the tick salivary protein evasin-4” (The Journal of Biological Chemistry, 2020).
Where a chain is given by its changes, count along the chain named. In names and notes the source's numbering stands. Entries after “also recorded” stand apart in the source; their conditions may differ. Like-named read-outs stand apart in the source and are kept apart here.

How the values were obtained:
[1] = tested on: E66S CCL5; experiment: NMR titration of 15N E66S CCL5 by Ev4 Glu14-Asn31; assay type: binding; conditions: 25 mM acetate
Method: In the case of E66S CCL5/Ev4 Glu^14–Asn^31 complex, 25 μM of ^15N E66S CCL5 in 25 mM acetate buffer, pH 4.5, was titrated by increasing concentrations of Ev4 Glu^14–Asn^31. For each concentration ^15N-^1H HSQC was recorded. Backbone resonance assignments were derived by following the shift of peak positions.

[2] = target: T1, human CCL5 (Homo sapiens, UniProt P13501); experiment: Fluorescence anisotropy titration of 5(6)-Fam-labeled peptides by CCL5; assay type: binding; conditions: 100 nM 5(6)-Fam-labeled peptide, HEPES pH 7.4, 37 °C; for effect of CCL5 addition on fluorescence anisotropy / affinity in words: CCL5 up to 500 nM
T1 sequence (P13501 24-91): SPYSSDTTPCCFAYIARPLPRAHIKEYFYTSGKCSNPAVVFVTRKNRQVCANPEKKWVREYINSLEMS
From the text: To assess this hypothesis, two peptides taken from the Evasin-4 sequence were synthesized by Boc-based solid-phase peptide synthesis (Figs. S8 and S9). The first peptide, Ev4 Glu^14–Ala^23, comprises the Glu^14–Ala^23 residues of Evasin-4, whereas the second one, Ev4 Glu^14–Asn^31, includes the longer region Glu^14–Asn^31 (Fig. 4C). Cys^27 in the Ev4 Glu^14–Asn^31 was mutated to alanine to prevent oxidation and formation of intermolecular disulfide bonds. Affinity of obtained peptides to CCL5 was studied by fluorescence anisotropy using 100 nM of 5(6)-Fam–labeled peptides and human CCL5.
Fluorescence polarization assays were carried out using FluoroMax 4 fluorimeter (Horiba) equipped with FM4-2000 polarizers in 3-ml cuvettes. 100 nM solution of 5(6)-Fam–labeled peptides in HEPES buffer pH 7.4 were titrated by a 30 μM stock solution of CCL5 at 37 °C. Fluorescent signal was measured using 495 and 520 nm as excitation and emission wavelengths. The final titration curve is a result of three or four independent measurements.

[3] = tested on: CCL5-induced THP-1 cell migration; experiment: THP-1 monocytic cell migration assay toward CCL5; assay type: cell-based, human; conditions: CCL5 0.5 µg/ml
Method: Human acute monocytic leukemia cell line (THP-1) monocytic cells were purchased from Leibniz-Institut DSMZ (ACC 16). The cells were cultured in RPMI 1640 GlutaMAX medium supplemented with 20 % fetal calf serum and 1 % penicillin/streptomycin (all Gibco ThermoFisher). The cells were cultured in a humidified atmosphere (5 % CO2, 95 % air, 37 °C) and routinely passed by splitting the cells (1:10) to fresh medium. The migration of monocytic cells toward chemoattractants was assessed in a 12-well chemotaxis chamber equipped with a 5-μm polycarbonate membrane (both Neuroprobe, Gaithersburg, MD, USA). Chemoattractants CCL5 (0.5 µg/ml) or CXCL4 (0.5 µg/ml) were preincubated with met–Evasin-4 (1 µg/ml) for 2 h at 37 °C subsequently added to the bottom well of the chemotaxis chamber. THP-1 monocytic cells (1 × 10^6/ml), suspended in RPMI 1640 GlutaMAX medium supplemented with 1 % fetal calf serum, were added in the upper wells and incubated for 90 min at 37 °C in a humidified atmosphere (5 % CO2, 95 % air). The nonmigrated cells were carefully removed, and the membrane was stained with Diff-Quick stain (Eberhard Lehmann GmbH, Berlin, Germany). Migrated cells were visualized by light microscopy, counted manually in five fields, and expressed as cells/mm^2.

[4] = Solubility/precipitation observed in NMR and crystallization sample preparation
Method: For NMR sample preparation, lyophilized proteins were dissolved in 25 mM phosphate buffer (pH 6.8–7.1) or 25 mM sodium acetate-d^3 buffer (pH 4.5) containing 0.1 mM EDTA, 0.2 mM sodium azide, 5% (v/v) D2O for deuterium lock, at final concentration of 50 μM for m–t-Evasin-4 and 82, 20, and 1 μM for E66S CCL5. The samples were buffer exchanged four or five times by ultracentrifugation using prewashed Amicon Ultra-3000 3-kDa (Millipore, USA) ultracentrifugation filters. Final NMR samples were prepared in 3- or 5-mm NMR tubes, containing traces of DSS for chemical shift calibration. All NMR spectra were recorded using a Bruker Avance III HD 700 MHz spectrometer, equipped with a cryogenically cooled TCI probe at 37 °C. To make the complex, equimolar amounts of unlabeled met–Evasin-4 or E66S CCL5 were titrated to their [^15N,^13C]-enriched complement samples. For met–Evasin-4 and the two complexes, the solution pH of the NMR sample was carefully adjusted to pH 7.1 to ensure stable, nonprecipitating solutions.

[5] = physiological pH; cited from earlier work
Method: (§1) CCL5 can oligomerize, forming dimers and oligomers of a higher order ([16]), which would complicate analysis of Evasin-4 binding. […] To address this question, surface plasmon resonance (SPR) biosensor analysis was performed with biotinylated Eva ...

[6] = NMR analysis of E66S CCL5 monomer/dimer equilibria; assay type: physicochemical; conditions: pH 4.5, 37 °C
Method: To study the structural determinants of E66S CCL5 involved in Evasin-4 binding, NMR spectra were recorded for the [^15N,^13C]E66S CCL5–Evasin-4 complex. Initial ^15N-^1H HSQC spectra of [^15N,^13C]E66S CCL5 were recorded at pH 4.5 and 37 °C at concentrations of 1 and 20 μM. […] This observation goes in line with the obtained crystal structure because the E66S CCL5 dimer interface is formed by interactions of the N terminus with the 30s loop and β3-strand.

[7] = tested on: Evasin-4; conditions: cited from earlier work
Method: as §1

[8] = tested on: CCL4; conditions: cited from earlier work
From the text: (§2) Disruption of the chemokine signaling system is one of the crucial parts of ticks' strategy to evade immune responses. To neutralize chemokines, ticks secrete small cysteine-rich chemokine-binding proteins in their saliva with no homologues in mammals, termed Evasins ([6]). Evasins can be divided into two structurally unrelated C6 or C8 subfamilies embodying six and eight cysteines, respectively ([6]). […] Although several hundred of putative C6- and C8-Evasins have been identified in tic ...

[9] = tested on: CCL18; conditions: cited from earlier work
From the text: as §2

[10] = tested on: CCL3; conditions: cited from earlier work
From the text: Disruption of the chemokine signaling system is one of the crucial parts of ticks' strategy to evade immune responses. To neutralize chemokines, ticks secrete small cysteine-rich chemokine-binding proteins in their saliva with no homologues in mammals, termed Evasins ([6]). Evasins can be divided into two structurally unrelated C6 or C8 subfamilies embodying six and eight cysteines, respectively ([6]). […] In fact, the N terminus of C8-Evasins seems to play a crucial role in chemokine binding. For instance, replacement of the N terminus of Evasin-1 by that of P672, another C8-Evasin with different chemokine selectivity, produced a chim ...

Q: Which “effect of peptide titration on E66S CCL5 signals” value ([1]; 25 μM [15N]E66S CCL5, increasing concentrations of peptide, pH 4.5) does the source give for “H-EEEDDYTAYAPLTAYFTN-NH2 [Ev4 Glu^14–Asn^31, H2N-EEEDDYTAYAPLTAYFTN-CONH2]” here?
A: Its value is “binds the CCL5 monomer; also recorded: gradual shift of signals of monomeric E66S CCL5 and decrease of signal intensity for the dimeric form; also recorded: only CCL5 monomer signals are affected upon binding”.

Q: And the “most perturbed residues of E66S CCL5 by peptide binding” value ([1]; 25 μM [15N]E66S CCL5 monomer form, before and after 500 μM Ev4 Glu14-Asn31, pH 4.5, 37 °C)?
A: The value was “N-loop (Phe^12–Arg^21 and His^23) and in the β3-strand (Gln^48 and Cys^50)”.

Q: And the “effect of CCL5 addition on fluorescence anisotropy / affinity in words” value [2]?
A: Its value is “dose-dependent increase of fluorescence anisotropy”.

Q: And the “affinity to CCL5” value ([2]; fluorescence anisotropy)?
A: The value was “nanomolar affinity to CCL5; also recorded: binds CCL5 with nanomolar affinity”.

Q: And the Kd ([2]; fluorescence anisotropy, titrated by 30 μM stock of CCL5, ex 495/em 520 nm, three or four independent measurements, read-out: apparent KD)?
A: The Kd was 69 ± 12 nM.

Q: What about the “required inhibitory concentrations compared with full-length Evasin-4” value ([3]; CCL5-induced THP-1 migration, compared with full-length protein) of the same molecule?
A: The value was “the required concentrations were higher compared with the full-length protein”.

Q: What about the “concentration at which full inhibition of CCL5-induced THP-1 migration was reached” value ([3]; full inhibition only at this concentration, 1 × 10^6 cells/ml, 90 min, 37 °C) of the same molecule?
A: The value was 10 µM.

Q: And the “inhibition of CCL5-induced THP-1 migration” value ([3]; increasing concentrations of Ev4 Glu14-Asn31, 1 × 10^6 cells/ml, 90 min, 37 °C)?
A: The value was “dose-dependent inhibition of CCL5-induced THP-1 cell migration; also recorded: effectively inhibits CCL5-induced monocyte migration; also recorded: blocks CCL5-induced monocyte migration”.

Q: And the “solubility of peptide” value ([4]; low pH values, negatively charged residues)?
A: The value was “poorly soluble at low pH values”.

Q: What about the “solubility of complex with E66S CCL5” value ([4]; peptide/E66S CCL5 complex compared with E66S CCL5-Evasin-4 complex) of the same molecule?
A: Its value is “more soluble compared with the E66S CCL5–Evasin-4 complex”.

Q: Which results are given for “H-EEEDDYTAYA-NH2 [Ev4 Glu^14–Ala^23, peptide comprising the Glu14–Ala23 residues of Evasin-4]”?
A: effect of CCL5 addition on fluorescence anisotropy / affinity in words [2]: no effect even at concentration of 500 nM; affinity to CCL5 ([2]; fluorescence anisotropy): no affinity to CCL5

B1: E66S CCL5: CCL5 mutant that mainly forms dimers at physiological pH (protein, UniProt P13501 24-91, looked up, variant E66S)
C-C motif chemokine 5: T1 sequence (P13501 24-91) with E66S
Q: With B1 as the molecule, how does the “oligomeric form” value [5] read?
A: The value was “mainly forms dimers”.

Q: And the “oligomeric form” value ([6]; 1 μM E66S CCL5, 15N-1H HSQC)?
A: Its value is “monomeric form”.

Q: What about the “oligomeric form” value ([6]; 20 μM E66S CCL5, 15N-1H HSQC, two sets of signals) of the same molecule?
A: The value was “monomeric and dimeric form”.

B2: CCL5: chemokine CC-motif ligand 5, also known as RANTES (protein, UniProt P13501 24-91, looked up)
C-C motif chemokine 5: T1 sequence (P13501 24-91)
Q: For B2, which “induction of THP-1 migration” value ([3]; compared with control in the absence of chemoattractants, 90 min, 37 °C) is on record?
A: The value was “induced significant migration of THP-1 cells”.

B3: E66A CCL5: CCL5 mutant with deficiency in oligomerization (ref 25) (protein, UniProt P13501 24-91, looked up, variant E66A)
C-C motif chemokine 5: T1 sequence (P13501 24-91) with E66A
Q: For B3, which “oligomerization and Evasin-4 inhibition potency” value [7] is on record?
A: Its value is “deficiency in oligomerization without disturbing Evasin-4 inhibition potency”.

B4: Evasin-1: 94–amino acid protein from the C8 subfamily, from Rhipicephalus sanguineus (protein, UniProt P0C8E7 21-114, looked up)
Evasin-1: EDDEDYGDLGGCPFLVAENKTGYPTIVACKQDCNGTTETAPNGTRCFSIGDEGLRRMTANLPYDCPLGQCSNGDCIPKETYEVCYRRNWRDKKN
Q: For B4, which affinity in words [8] is on record?
A: Its affinity in words is “high-affinity binder”.

Q: And the affinity in words [9]?
A: Its affinity in words is “high-affinity binder”.

Q: What about the affinity in words [10] of the same molecule?
A: Its affinity in words is “high-affinity binder”.
